What all share (assay type): cell-based
For test [1], the system named is Staphylococcus aureus ATCC29213. Briefly: MIC, microbroth dilution. To be noted: Staphylococcus aureus ATCC29213, rifS; read-out: Antimicrobial activity (MIC). On the technique in general: Broth dilution looks for growth in wells or tubes with falling amounts of substance.
Test [2] has as its system Staphylococcus aureus ATCC29213 rpoB^D417Y. The test can be described thus: microbe, parasite or virus in culture. To be noted: Staphylococcus aureus ATCC29213 rpoB^D417Y, rifR; read-out: Antimicrobial activity (MIC). As to the method:
(§1) Representative compounds were assayed for antimicrobial activity as follows: Minimum Inhibitory Concentrations (“MICs”) were determined by the microbroth dilution method as per NCCLS guidelines (National Committee for Clinical Laboratory Standards. 2000. Methods for dilution antimicrobial susceptibility tests for bacteria that grow aerobically, 5th ed. M7-A5. National Committee for Clinical Laboratory Standards, Wayne, Pa.), except that all growth incubations were conducted at 37° C. Bacterial cultures were tested in the following bacteriological media: S. aureus, S. epidermidis, and E. coli in Cation-Adjusted Mueller-Hinton Broth, S. pneumoniae in THY Broth supplemented with 1 mg/mL catalase under 5% CO2 atmosphere, S. pyogenes in THY Broth, E. faecalis in BHI Broth, H. influenzae in BHI Broth supplemented with 0.75 μL of 1 mg/mL NAD and 150 μL of 1 mg/ml hematin per 5 mL, and M. smegmatis in Middlebrook Broth plus ADC Enrichment.
(§2) S. aureus ATCC 29213 RpoB^H418Y is a rifampin-resistant strain with a mutation in the RpoB gene of RNA polymerase. […] S. aureus EN1252a gyrA^S84L grlA^S80F is a quinolone-resistant strain due to double gene mutations of DNA gyrase and topoisomerase IV.

For test [3], the system named is Staphylococcus aureus ATCC29213 rpoB^H418Y. Briefly: microbe, parasite or virus in culture. To be noted: Staphylococcus aureus ATCC29213 rpoB^H418Y, rifR; read-out: Antimicrobial activity (MIC). As to the method:
as §1, §2

The subject of test [4] is Staphylococcus aureus EN1252a gyrA^S84L grlA^S80F. Briefly: microbe, parasite or virus in culture. To be noted: Staphylococcus aureus EN1252a gyrA^S84L grlA^S80F, cipR; read-out: Antimicrobial activity (MIC). As to the method: as §1, §2
Test [5] deals with Staphylococcus epidermidis ATCC12228. The test can be described thus: MIC, microbroth dilution. To be noted: Staphylococcus epidermidis ATCC12228, rifS; read-out: Antimicrobial activity (MIC).
The subject of test [6] is Streptococcus pneumoniae ATCC6303. The test can be described thus: MIC, microbroth dilution. To be noted: Streptococcus pneumoniae ATCC6303, rifS; read-out: Antimicrobial activity (MIC).
For test [7], the system named is Streptococcus pyogenes ATCC19615. The test can be described thus: MIC, microbroth dilution. To be noted: Streptococcus pyogenes ATCC19615, rifS; read-out: Antimicrobial activity (MIC).
The test system of test [8] is Enterococcus faecalis ATCC29212. Briefly: MIC, microbroth dilution. To be noted: Enterococcus faecalis ATCC29212, rifS; read-out: Antimicrobial activity (MIC).
For test [9], the system named is Haemophilus influenzae ATCC10211. The test can be described thus: MIC, microbroth dilution. To be noted: Haemophilus influenzae ATCC10211, rifS; read-out: Antimicrobial activity (MIC).
For test [10], the system named is Escherichia coli ATCC25922. The test can be described thus: MIC, microbroth dilution. To be noted: Escherichia coli ATCC25922, rifS; read-out: Antimicrobial activity (MIC).
Test [11] has as its system Mycobacterium smegmatis ATCC700084. Briefly: MIC, microbroth dilution. To be noted: Mycolicibacterium smegmatis; Mycobacterium smegmatis ATCC700084, rifS; read-out: Antimicrobial activity (MIC).

Converted amounts (≈) assume the structure as drawn.

As to `CO[C@H]1/C=C/O[C@@]2(C)Oc3c(C)c(O)c4c(c3/C2=N/OC(C)=O)C(=O)C=C(NC(=O)/C(C)=C\C=C\[C@H](C)[C@H](O)[C@@H](C)[C@@H](O)[C@@H](C)[C@H](OC(C)=O)[C@@H]1C)C4=O` [Example 9, 11-Deoxy-11-acetoxyiminorifamycin S], the MIC was in the range of 0.004 to 0.5 µg/mL (≈ 0.00531 to 0.664 µM) in test [1]; 0.25 to 32 µg/mL (≈ 0.332 to 42.5 µM) in [2]; 0.125 to 16 µg/mL (≈ 0.166 to 21.3 µM) in test [3]; 0.004 to 0.5 µg/mL (≈ 0.00531 to 0.664 µM) in test [4]; 0.0005 to 0.063 µg/mL (≈ 0.000664 to 0.0837 µM) in [5]; 0.0002 to 0.125 µg/mL (≈ 0.000266 to 0.166 µM) in test [6]. The MIC in test [7] lay in the range of 0.0005 to 0.063 µg/mL (≈ 0.000664 to 0.0837 µM); in test [8], 2 to 32 µg/mL (≈ 2.66 to 42.5 µM); in test [9], 0.03 to 2 µg/mL (≈ 0.0399 to 2.66 µM); in [10] it was 0.125 to 8 µg/mL (≈ 0.166 to 10.6 µM); in test [11], 0.5 to 64 µg/mL (≈ 0.664 to 85 µM).

In the case of `COCCOCO/N=C1/c2c3c(C)c(O)c4c2C(=O)C=C(NC(=O)/C(C)=C\C=C\[C@H](C)[C@H](O)[C@@H](C)[C@@H](O)[C@@H](C)[C@H](OC(C)=O)[C@H](C)[C@@H](OC)/C=C/O[C@@]1(C)O3)C4=O` [Example 10, 11-Deoxy-11-methoxyethoxymethoxyiminorifamycin S], the MIC in test [1] fell in the range of 0.004 to 0.5 µg/mL (≈ 0.00501 to 0.626 µM); in [2], 0.25 to 32 µg/mL (≈ 0.313 to 40.1 µM); in test [3] it was 0.125 to 16 µg/mL (≈ 0.156 to 20 µM); in test [4], 0.004 to 0.5 µg/mL (≈ 0.00501 to 0.626 µM); in [5], 0.0005 to 0.063 µg/mL (≈ 0.000626 to 0.0789 µM); in test [6], 0.0002 to 0.125 µg/mL (≈ 0.00025 to 0.156 µM). The MIC in test [7] was in the range of 0.0005 to 0.063 µg/mL (≈ 0.000626 to 0.0789 µM); in [8], 2 to 32 µg/mL (≈ 2.5 to 40.1 µM); in [9], 0.03 to 2 µg/mL (≈ 0.0376 to 2.5 µM); in [10], 0.125 to 8 µg/mL (≈ 0.156 to 10 µM); in [11], 0.5 to 64 µg/mL (≈ 0.626 to 80.1 µM).

Take `C=CCO/N=C1/c2c3c(C)c(O)c4c2C(=O)C=C(NC(=O)/C(C)=C\C=C\[C@H](C)[C@H](O)[C@@H](C)[C@@H](O)[C@@H](C)[C@H](OC(C)=O)[C@H](C)[C@@H](OC)/C=C/O[C@@]1(C)O3)C4=O` [Example 11, 11-Deoxy-11-allyloxyiminorifamycin S]: the MIC in test [1] fell in the range of 0.004 to 0.5 µg/mL (≈ 0.00533 to 0.666 µM); in test [2], 0.25 to 32 µg/mL (≈ 0.333 to 42.6 µM); in [3], 0.125 to 16 µg/mL (≈ 0.166 to 21.3 µM); in test [4] it was 0.004 to 0.5 µg/mL (≈ 0.00533 to 0.666 µM); in test [5], 0.0005 to 0.063 µg/mL (≈ 0.000666 to 0.0839 µM); in test [6], 0.0002 to 0.125 µg/mL (≈ 0.000266 to 0.166 µM). For the same compound, the MIC in test [7] fell in the range of 0.0005 to 0.063 µg/mL (≈ 0.000666 to 0.0839 µM); in [8], 2 to 32 µg/mL (≈ 2.66 to 42.6 µM); in test [9] it was 0.03 to 2 µg/mL (≈ 0.04 to 2.66 µM); in test [10], 0.125 to 8 µg/mL (≈ 0.166 to 10.7 µM); in test [11] it was 0.5 to 64 µg/mL (≈ 0.666 to 85.2 µM).

As to `CO[C@H]1/C=C/O[C@@]2(C)Oc3c(C)c(O)c4c(c3/C2=N/OCCBr)C(=O)C=C(NC(=O)/C(C)=C\C=C\[C@H](C)[C@H](O)[C@@H](C)[C@@H](O)[C@@H](C)[C@H](OC(C)=O)[C@@H]1C)C4=O` [Example 12, 11-Deoxy-11-(2-bromoethoxyimino)rifamycin S], the MIC in [1] lay in the range of 0.004 to 0.5 µg/mL (≈ 0.00489 to 0.611 µM); in [2] it was 0.25 to 32 µg/mL (≈ 0.306 to 39.1 µM); in test [3], 0.125 to 16 µg/mL (≈ 0.153 to 19.6 µM); in [4], 0.004 to 0.5 µg/mL (≈ 0.00489 to 0.611 µM); in test [5], 0.0005 to 0.063 µg/mL (≈ 0.000611 to 0.077 µM); in test [6], 0.0002 to 0.125 µg/mL (≈ 0.000245 to 0.153 µM). In addition, the MIC in test [7] is 0.0005 to 0.063 µg/mL (≈ 0.000611 to 0.077 µM); in test [8], 2 to 32 µg/mL (≈ 2.45 to 39.1 µM); in test [9] it was 0.03 to 2 µg/mL (≈ 0.0367 to 2.45 µM); in test [10] it was 0.125 to 8 µg/mL (≈ 0.153 to 9.78 µM); in [11] it was 0.5 to 64 µg/mL (≈ 0.611 to 78.3 µM).

For `COc1c(N2CCN(CCO/N=C3/c4c5c(C)c(O)c6c4C(=O)C=C(NC(=O)/C(C)=C\C=C\[C@H](C)[C@H](O)[C@@H](C)[C@@H](O)[C@@H](C)[C@H](OC(C)=O)[C@H](C)[C@@H](OC)/C=C/O[C@@]3(C)O5)C6=O)C(C)C2)c(F)cc2c(=O)c(C(=O)O)cn(C3CC3)c12` (stereo partly shown) [Example 13], the MIC in [1] fell in the range of 0.004 to 0.5 µg/mL (≈ 0.0036 to 0.45 µM); in test [2], 0.25 to 32 µg/mL (≈ 0.225 to 28.8 µM); in [3], 0.125 to 16 µg/mL (≈ 0.112 to 14.4 µM); in test [4], 0.004 to 0.5 µg/mL (≈ 0.0036 to 0.45 µM); in [5] it was 0.0005 to 0.063 µg/mL (≈ 0.00045 to 0.0566 µM); in test [6], 0.0002 to 0.125 µg/mL (≈ 0.00018 to 0.112 µM). For the same compound, the MIC in test [7] was in the range of 0.0005 to 0.063 µg/mL (≈ 0.00045 to 0.0566 µM); in [8] it was 2 to 32 µg/mL (≈ 1.8 to 28.8 µM); in test [9], 0.03 to 2 µg/mL (≈ 0.027 to 1.8 µM); in [10], 0.125 to 8 µg/mL (≈ 0.112 to 7.19 µM); in test [11] it was 0.5 to 64 µg/mL (≈ 0.45 to 57.5 µM).

These data come from patent US7256187B2, “Rifamycin C-11 oxime derivatives effective against drug-resistant microbes” (Cumbre Pharmaceuticals Inc., priority 2004, dated 2007).
